Data as given in paper PMC9412414, “A Study on Repositioning Nalidixic Acid via Lanthanide Complexation: Synthesis, Characterization, Cytotoxicity and DNA/Protein Binding Studies” (Pharmaceuticals, 2022).

How the values were obtained:
[1] = tested on: LoVo (human colorectal adenocarcinoma) cell line; assay: MTS cytotoxicity assay, LoVo cell line; assay type: cell-based; conditions: 48 h of incubation
Protocol: (§1) LoVo, MDA-MB-231 and HUVEC human cell lines were purchased from American Type Culture Collection (ATCC). Cells were routinely maintained in culture either in culture flasks or seeded in plates, using Dulbecco’s modified Eagle medium/nutrient mixture F-12 (DMEM:F12) medium supplemented with […], 10% fetal calf serum (Sigma Aldrich, St. Louis, MO, USA), 100 units/mL penicillin, 100 μg/mL streptomycin and incubated at 37 °C in 5% CO2 humidified atmosphere.
(§2) Cytotoxicity studies were performed in 96-well microtiter plates with flat bottoms (Falcon, Teterboro, NJ, USA) using the CellTiter 96 Aqueous One Solution Cell Proliferation Assay (Promega, Madison, WI, USA), an MTS-based colorimetric assay. Metabolically active cells have the ability to reduce MTS [3-(4,5-dimethylthiazol-2-yl)-5-(3-carboxymethoxyphenyl)-2-(4-sulfophenyl)-2H-tetrazolium, inner salt], a yellow tetrazolium salt, to a colored formazan that is soluble in the culture medium. Briefly, 15 × 10^3 cells per well were cultured in 100 µL culture medium. After 24 h, adherent cells were treated with different concentrations of the studied compounds, as well as adriamycin (Adr) and cisplatin (Cis-Pt), used as positive controls for 24 h and 48 h, respectively. Each well was then filled with 20 µL of reagent containing MTS and PES (phenazine ethosulfate, a cationic dye with excellent chemical stability that binds to MTS and produces a stable solution). The resulting formazan was determined using a Tecan GENios Spectrophotometer (Tecan US, Durham, NC, USA) by measuring the absorbance at λ = 492 nm after incubation for 4 h at 37 °C with moderate agitation every 15 min. The cytotoxicity tests were performed in triplicate, with results reported as mean values with standard deviations (SD). The cytotoxicity of DMSO was also investigated under the same conditions, and no harmful effect was found at doses less than 1%.
(§3) Data were expressed as cell viability by comparing with untreated cells considered 100% viable, using the following formula:(1) Cell viability (%)=absorbance of treated cells−absorbance of culture medium/absorbance of untreated cells−absorbance of culture medium

[2] = tested on: HUVEC (human umbilical vein endothelial cells); assay: MTS cytotoxicity assay, HUVEC normal cell line; assay type: cell-based; conditions: 24 h of incubation
Protocol: as §1, §2, §3

[3] = tested on: EB–DNA system (CT-DNA); assay: Competitive binding assay with ethidium bromide (EB) through fluorescence spectroscopy; design: species or system calf; conditions: EB 2 µM, CT-DNA 10 µM, compound 0–40 µM
Protocol: The fluorescence spectra were recorded using 1.6 mL samples containing 10 µM CT-DNA, 2 µM EB, and increasing amounts (0–40 µM with an increment of 5 µM) of tested compounds; the samples were prepared by keeping the components in contact for 10 min at room temperature, under continuous stirring and in the dark. The excitation wavelength was 500 nm, and the spectra were recorded between the wavelengths of 520 and 800 nm. A Jasco FP 6500 fluorometer and quartz cells with a 1 cm route length were employed. The classical Stern–Volmer equation (Equation (3)) was used to interpret the obtained data:(3) F0/F=1+KSV·[Q] F0 and F are the fluorescence intensities of the EB–DNA samples in the absence and presence of the tested compounds, respectively; KSV is the Stern–Volmer constant, which was computed as the slope from the plot of F0/F vs. [Q], where [Q] is the chemical concentration.
The binding ratio was plotted against the logarithm of the concentration in comparison with a control sample exposed solely to DMSO. (4) y=A1+(A2−A1)×x^n/K50^n+x^n
For fitting data points, the modified Hill function with offset (Origin®) was used: where y represents the binding ratio (F/F0), x represents the concentration, A1 represents the minimum of y values, A2 represents the maximum of y values, K50 represents the concentration corresponding to 50% binding or the half maximum binding constant, and n represents the Hill coefficient.

[4] = biological target: T1, apotransferrin (apo-Tf) (Homo sapiens, UniProt P02787); assay: Apo-Tf fluorescence quenching binding study; conditions: for Kd: read-out: Kd (dissociation constant), Apo-Tf; for fa (fraction of fluorophore accessible to the quencher), Apo-Tf / Ksv* (Stern–Volmer quenching constant), Apo-Tf: compound 0–8 µM; for Ksv* (Stern–Volmer quenching constant), Apo-Tf: Tris-HCl pH 7.4, 298 K; for Kq (bimolecular quenching constant), Apo-Tf: from Ksv* with τ0 = 10^−8 s
T1 construct: purchased Sigma-Aldrich Chemical Co. (Schnelldorf, Germany)
Protocol: (§4) Using a Jasco FP 6500 spectrofluorometer (Jasco, Tokyo, Japan) and quartz cells with a 1 cm path length, the fluorescence spectra of HSA and apo-Tf were recorded in the presence and absence of the examined substances. The 2.5 mL samples containing 2.5 µM HSA or 1 µM apo-Tf were titrated by adding 5 µL of the tested substance at a time, a volume that corresponded to a 1 µM increase in concentration. The concentration range used for these experiments varied from 0 to 8 µM. The relevant spectra were collected in the emission domains of 300–500 nm (HSA) and 305–500 nm (apo-Tf) after 3 min of continuous stirring at room temperature, using excitation wavelengths of 280 nm (HSA) and 295 nm (apo-Tf).
(§5) Experiments were conducted in a pH = 7.4 Tris-HCl buffer (5 mM Tris-HCl/50 mM NaCl for HSA and 5 mM Tris-HCl/50 mM NaCl/25 mM NaHCO3 for apo-Tf).
(§6) The following modified Stern–Volmer equation has been used to calculate the Stern–Volmer constant, which will be denoted as KSV* in order to differentiate it from the Stern–Volmer constant calculated for the DNA binding experiments:(5) F0/F0−F=1/faKsv*[Q]+1/fa where F0 and F are the fluorescence intensities in the absence and presence of the tested compounds, fa is the fraction of fluorophore accessible to the quencher (the tested compounds), [Q] is the quencher concentration, and KSV* (M^−1) is the Stern–Volmer constant; the plot of F0/(F0 − F) against 1/[Q] yields KSV as the slope and fa as the y intercept.
(§7) Subsequently, the bimolecular quenching rate constant was obtained by using Equation (6):(6) Ksv^*=Kqτ0
(§8) Kq (M^−1·s^−1) is the bimolecular quenching rate constant and τ0 is the fluorophore’s lifespan in the absence of the investigated chemicals (10^−8 s). The value of Kq can be used to assess whether the quenching phenomena have an underlying static or dynamic mechanism.
(§9) Using the following equation, the affinity constant (Ka) and the number of binding sites (n) have been calculated: (7) lgF0−F/F=lgKa+nlg[Q]
(§10) The binding affinity, Kd, can be calculated using the quadratic function below:(8) F0−F/F0−Fb=[P]t+[Q]+Kd−([P]t+[Q]+Kd)^2−4[P]t[Q]/2[P]t where F and F0 are the fluorescence intensities of the protein in the presence and absence of the quencher, respectively, Fb is the fluorescence of a fully bound protein–quencher, [P]t is the total concentration of the protein, and [Q] is the concentration of the added quencher. Each binding isotherm was plotted against the total quencher concentration in solution as a function of bound to free protein (F/F0).
(§11) The isotherms were then fitted using the nonlinear regression function below:(9) F/F0= F1+(F2−F1)Kdn/Kdn+[Q]^n where n represents the Hill coefficient, F1 and F2 are the horizontal and vertical asymptotes, respectively. The Kd in Equation (9) is derived from the quadratic binding function (Equation (8)).
(§12) Data were collected in triplicate, averaged, and expressed as mean value ± standard deviation (SD). All graph fitting models were defined and built using OriginPro® 2018.

[5] = biological target: T2, human serum albumin (HSA) (Homo sapiens, UniProt P02768); assay: HSA fluorescence quenching binding study; conditions: for Ka (association binding constant), HSA / n1 (Number of Binding Sites), HSA / n2 (Hill Coefficient), HSA / Kd / fa (fraction of fluorophore accessible to the quencher), HSA / Kq (bimolecular quenching constant), HSA: 298 K; for Kd: read-out: Kd (dissociation constant), HSA; for Kq (bimolecular quenching constant), HSA: from Ksv* with τ0 = 10^−8 s
T2 construct: purchased Sigma-Aldrich Chemical Co. (Schnelldorf, Germany)
Protocol: as §4, §5, §6, §7, §8, §9, §10, §11, §12

T1 sequence (P02787 20-698): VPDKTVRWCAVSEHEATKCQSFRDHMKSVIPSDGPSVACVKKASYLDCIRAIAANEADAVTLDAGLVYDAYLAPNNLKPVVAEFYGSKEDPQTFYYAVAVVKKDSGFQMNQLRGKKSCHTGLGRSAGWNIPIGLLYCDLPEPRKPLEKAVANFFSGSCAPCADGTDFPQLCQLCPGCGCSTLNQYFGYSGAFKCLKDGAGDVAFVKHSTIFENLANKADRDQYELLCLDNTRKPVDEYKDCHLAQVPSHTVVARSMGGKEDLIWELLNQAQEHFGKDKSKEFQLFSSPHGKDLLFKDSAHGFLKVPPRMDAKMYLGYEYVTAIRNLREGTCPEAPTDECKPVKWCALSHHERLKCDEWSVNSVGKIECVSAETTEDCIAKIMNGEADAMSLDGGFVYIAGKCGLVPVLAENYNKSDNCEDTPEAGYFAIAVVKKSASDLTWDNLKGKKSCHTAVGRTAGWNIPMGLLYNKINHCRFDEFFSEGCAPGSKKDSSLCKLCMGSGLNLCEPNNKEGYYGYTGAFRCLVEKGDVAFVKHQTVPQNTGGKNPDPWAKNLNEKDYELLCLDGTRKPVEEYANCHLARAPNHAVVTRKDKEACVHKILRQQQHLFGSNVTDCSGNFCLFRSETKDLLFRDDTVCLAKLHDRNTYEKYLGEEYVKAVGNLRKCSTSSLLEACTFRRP
T2 sequence (P02768 25-609): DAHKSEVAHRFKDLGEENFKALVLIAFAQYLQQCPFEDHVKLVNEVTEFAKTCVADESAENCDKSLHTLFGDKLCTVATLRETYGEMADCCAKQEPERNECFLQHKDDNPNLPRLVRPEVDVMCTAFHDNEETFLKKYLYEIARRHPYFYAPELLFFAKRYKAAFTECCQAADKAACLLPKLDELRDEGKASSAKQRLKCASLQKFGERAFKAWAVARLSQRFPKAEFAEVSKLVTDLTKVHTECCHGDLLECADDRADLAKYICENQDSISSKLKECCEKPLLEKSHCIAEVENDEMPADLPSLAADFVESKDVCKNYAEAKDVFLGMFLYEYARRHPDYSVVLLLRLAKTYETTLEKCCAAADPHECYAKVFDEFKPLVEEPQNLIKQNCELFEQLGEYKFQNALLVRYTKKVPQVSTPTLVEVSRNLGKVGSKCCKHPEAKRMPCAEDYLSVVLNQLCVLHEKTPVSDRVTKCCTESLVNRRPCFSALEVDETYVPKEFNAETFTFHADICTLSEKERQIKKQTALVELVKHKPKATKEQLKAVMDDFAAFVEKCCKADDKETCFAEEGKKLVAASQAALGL

Substance	IC50 [1] [µM]	IC50 [2] [µM]	EB Displacement Assay K50 (half maximum binding constant) [3] [µM]	KSV, Stern–Volmer quenching constant (EB–DNA) [3]	Ka (association binding constant), Apo-Tf ([4]; apo-Tf 1 µM, 298 K)	n1 (Number of Binding Sites), Apo-Tf ([4]; apo-Tf 1 µM, 298 K)	n2 (Hill Coefficient), Apo-Tf ([4]; apo-Tf 1 µM, 298 K)	Kd ([4]; apo-Tf 1 µM, 298 K) [µM]	fa (fraction of fluorophore accessible to the quencher), Apo-Tf ([4]; apo-Tf 1 µM, 298 K)	Ksv* (Stern–Volmer quenching constant), Apo-Tf ([4]; apo-Tf 1 µM)	Kq (bimolecular quenching constant), Apo-Tf ([4]; 298 K) [M⁻¹ s⁻¹]	Ka (association binding constant), HSA ([5]; HSA 2.5 µM)	n1 (Number of Binding Sites), HSA ([5]; HSA 2.5 µM)	n2 (Hill Coefficient), HSA ([5]; HSA 2.5 µM)	Kd ([5]; HSA 2.5 µM) [µM]	fa (fraction of fluorophore accessible to the quencher), HSA ([5]; HSA 2.5 µM, compound 0–8 µM)	Ksv* (Stern–Volmer quenching constant), HSA ([5]; HSA 2.5 µM, compound 0–8 µM, Tris-HCl pH 7.4, 298 K)	Kq (bimolecular quenching constant), HSA [5] [M⁻¹ s⁻¹]
Gd(C12H11N2O3)3(H2O)2·1.5H2O [Gd(nal)3]	28.4 ± 7.95	58.4 ± 29.3	31.88 ± 7.73	9.86 ± 0.19 M^−1 (×10^3)	(2.63 ± 0.39) × 10^4 M^−1	0.87 ± 0.01	1.22 ± 0.12	5.86 ± 0.72	0.82 ± 0.02	(1.78 ± 0.07) × 10^5 M^−1	1.78e+13	(19.61 ± 1.83) × 10^5 M^−1	1.14 ± 0.01	1.35 ± 0.12	3.27 ± 0.11	1.10 ± 0.00	(2.69 ± 0.05) × 10^5 M^−1	2.69e+13
Tb(C12H11N2O3)3(H2O)2·1.5H2O [Tb(nal)3]	25.6 ± 6.97	96.2 ± 48.8	31.96 ± 10.16	8.35 ± 0.11 M^−1 (×10^3)	(1.63 ± 0.42) × 10^4 M^−1	0.83 ± 0.02		5.76 ± 2.6	0.68 ± 0.01	(2.70 ± 0.11) × 10^5 M^−1	2.7e+13	(31.26 ± 9.66) × 10^5 M^−1	1.18 ± 0.02	0.89 ± 0.35	4.61 ± 1.67	1.13 ± 0.02		2.39e+13
